In patent US20240199623A1 (ILDONG PHARMACEUTICAL CO., LTD., priority 2020, published 2024):
pEC50: −log10 of the molar value.

Biological target: human wild type-CFTR (Homo sapiens, UniProt P13569)
Experiment: Cell-based YFP assay
Parameters: expressed in transfected cells; host or cells: CHO-K1 (Chinese hamster ovary)
Settings: CHO-K1 cells expressing human wild type-CFTR and YFP-H148Q/I152L; forskolin 20 μM = 100% activity; read-out: Cell-based YFP Assay (EC50) Concentration Range
How it was run: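 I⁻-driven YFP fluorescence quenching at 37 °C: 2 s baseline, addition of 140 mM iodide solution, then 14 s of readings at 0.4 s intervals. Cells were CHO-K1 expressing human wild-type CFTR plus YFP-H148Q/I152L. EC50 derived from averaged triplicates.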

human wild type-CFTR, sequence (P13569 whole entry): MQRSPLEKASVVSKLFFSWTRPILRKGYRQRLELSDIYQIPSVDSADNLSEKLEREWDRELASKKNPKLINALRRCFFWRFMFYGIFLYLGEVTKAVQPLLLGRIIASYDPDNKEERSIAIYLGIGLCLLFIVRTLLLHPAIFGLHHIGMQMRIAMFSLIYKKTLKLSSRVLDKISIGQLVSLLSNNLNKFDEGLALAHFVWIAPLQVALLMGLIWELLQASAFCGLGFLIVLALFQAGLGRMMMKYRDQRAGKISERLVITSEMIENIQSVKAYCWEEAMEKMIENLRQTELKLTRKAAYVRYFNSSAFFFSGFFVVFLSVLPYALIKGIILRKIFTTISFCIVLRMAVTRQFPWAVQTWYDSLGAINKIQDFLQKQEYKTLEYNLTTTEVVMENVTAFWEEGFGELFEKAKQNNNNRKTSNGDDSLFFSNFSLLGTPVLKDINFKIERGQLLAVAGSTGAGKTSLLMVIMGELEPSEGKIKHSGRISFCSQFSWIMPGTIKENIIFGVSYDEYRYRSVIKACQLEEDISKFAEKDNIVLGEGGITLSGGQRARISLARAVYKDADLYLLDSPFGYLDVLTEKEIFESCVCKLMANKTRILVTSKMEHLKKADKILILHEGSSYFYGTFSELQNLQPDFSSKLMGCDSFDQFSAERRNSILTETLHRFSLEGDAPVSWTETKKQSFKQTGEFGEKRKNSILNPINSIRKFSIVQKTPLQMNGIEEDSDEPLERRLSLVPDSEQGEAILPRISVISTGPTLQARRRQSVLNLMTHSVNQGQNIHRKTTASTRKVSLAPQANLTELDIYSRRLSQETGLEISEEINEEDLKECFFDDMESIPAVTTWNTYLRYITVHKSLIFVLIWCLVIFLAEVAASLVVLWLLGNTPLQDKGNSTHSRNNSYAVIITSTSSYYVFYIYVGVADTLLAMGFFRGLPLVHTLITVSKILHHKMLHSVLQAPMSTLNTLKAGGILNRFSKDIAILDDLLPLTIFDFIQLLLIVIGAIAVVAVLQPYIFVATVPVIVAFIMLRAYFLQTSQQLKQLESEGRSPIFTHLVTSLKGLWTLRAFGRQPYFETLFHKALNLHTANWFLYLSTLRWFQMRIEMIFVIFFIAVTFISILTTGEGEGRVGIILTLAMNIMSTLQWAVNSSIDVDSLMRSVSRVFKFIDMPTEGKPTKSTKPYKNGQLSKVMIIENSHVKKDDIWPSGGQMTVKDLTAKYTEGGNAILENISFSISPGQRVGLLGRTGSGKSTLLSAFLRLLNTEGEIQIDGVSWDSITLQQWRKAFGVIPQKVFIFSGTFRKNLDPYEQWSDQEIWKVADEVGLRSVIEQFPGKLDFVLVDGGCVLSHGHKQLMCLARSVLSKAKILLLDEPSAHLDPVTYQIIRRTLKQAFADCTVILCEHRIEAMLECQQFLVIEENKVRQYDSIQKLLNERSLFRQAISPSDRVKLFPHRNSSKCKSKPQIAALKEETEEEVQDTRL

Row | SMILES | pEC50
1 | COc1ccc(-c2ccnc3cc(C(=O)Nc4ccc(C(=O)O)c(C)c4)nn23)cc1OC [Compound 213, 4-(7-(3,4-dimethoxyphenyl)pyrazolo[1,5-a]pyrimidine-2-carboxamido)-2-methylbenzoic acid] | ≤ 5.70
2 | COc1ccc(-c2ccnc3cc(C(=O)Nc4ccc(C(=O)N5CCOCC5)c(C)c4)nn23)cc1OC [Compound 214, 7-(3,4-dimethoxyphenyl)-N-(3-methyl-4-(morpholine-4-carbonyl)phenyl)pyrazolo[1,5-a]pyrimidine-2-carboxamide] | ≤ 5.70
3 | COc1ccc(-c2ccnc3cc(C(=O)Nc4ccc(C(=O)O)c(OC)c4)nn23)cc1OC [Compound 216, 4-(7-(3,4-dimethoxyphenyl)pyrazolo[1,5-a]pyrimidine-2-carboxamido)-2-methoxybenzoic acid] | ≤ 5.70
4 | COc1ccc(-c2ccnc3cc(C(=O)Nc4ccc(C(=O)N5CCOCC5)c(OC)c4)nn23)cc1OC [Compound 217, 7-(3,4-dimethoxyphenyl)-N-(3-methoxy-4-(morpholine-4-carbonyl)phenyl)pyrazolo [1,5-a] pyrimidine-2-carboxamide] | ≤ 5.70
5 | COc1ccc(-c2ccnc3cc(C(=O)Nc4ccc(C(=O)N(C)CCN(C)C)cc4)nn23)cc1OC [Compound 219, 7-(3,4-dimethoxyphenyl)-N-(4-((2-(dimethylamino)ethyl) (methyl)carbamoyl)phenyl)pyrazolo[1,5-a] pyrimidine-2-carboxamide] | ≤ 5.70
6 | COc1ccc(-c2ccnc3cc(C(=O)Nc4ccc(C(=O)NCCCN(C)C)cc4)nn23)cc1OC [Compound 220, 7-(3,4-dimethoxyphenyl)-N-(4-((3-(dimethylamino)propyl)carbamoyl)phenyl) pyrazolo[1,5-a]pyrimidine-2-carboxamide] | ≤ 5.70
7 | CCN(CC)CCNC(=O)c1ccc(NC(=O)c2cc3nccc(-c4ccc(OC)c(OC)c4)n3n2)cc1 [Compound 221, N-(4-((2-(diethylamino)ethyl)carbamoyl)phenyl)-7-(3,4-dimethoxyphenyl)pyrazolo [1,5-a]pyrimidine-2-carboxamide] | ≤ 5.70
8 | CCN(CC)CCCNC(=O)c1ccc(NC(=O)c2cc3nccc(-c4ccc(OC)c(OC)c4)n3n2)cc1 [Compound 222, N-(4-((3-(diethylamino)propyl)carbamoyl)phenyl)-7-(3,4-dimethoxyphenyl) pyrazolo[1,5-a]pyrimidine-2-carboxamide] | ≤ 5.70
9 | COc1ccc(-c2ccnc3cc(C(=O)Nc4ccc(C(=O)NCCN5CCCC5)cc4)nn23)cc1OC [Compound 223, 7-(3,4-dimethoxyphenyl)-N-(4-((2-(pyrrolidin-1-yl)ethyl)carbamoyl)phenyl)pyrazolo[1,5-a]pyrimidine-2-carboxamide] | ≤ 5.70
10 | COc1ccc(-c2ccnc3cc(C(=O)Nc4ccc(C(=O)NCCCN5CCCC5)cc4)nn23)cc1OC [Compound 224, 7-(3,4-dimethoxyphenyl)-N-(4-((3-(pyrrolidin-1-yl)propyl)carbamoyl)phenyl)pyrazolo[1,5-a]pyrimidine-2-carboxamide] | ≤ 5.70
11 | COc1ccc(-c2ccnc3cc(C(=O)Nc4ccc(C(=O)OCCN5CCCC5)cc4)nn23)cc1OC [Compound 225, 2-(pyrrolidin-1-yl)ethyl 4-(7-(3,4-dimethoxyphenyl)pyrazolo [1,5-a]pyrimidine-2-carboxamido)benzoate] | ≤ 5.70
12 | COc1ccc(-c2ccnc3cc(C(=O)Nc4ccc(C(=O)OCCCN5CCCC5)cc4)nn23)cc1OC [Compound 226, 3-(pyrrolidin-1-yl)propyl 4-(7-(3,4-dimethoxyphenyl)pyrazolo [1,5-a]pyrimidine-2-carboxamido)benzoate] | ≤ 5.70
13 | COc1ccc(-c2ccnc3cc(C(=O)Nc4ccc(OC(=O)CNC(=O)OC(C)(C)C)cc4)nn23)cc1OC [Compound 227, 4-(7-(3,4-dimethoxyphenyl)pyrazolo[1,5-a]pyrimidine-2-carboxamido) phenyl(tert-butoxycarbonyl)glycinate] | > 6.70
14 | COc1ccc(-c2ccnc3cc(C(=O)Nc4ccc(OC(=O)[C@H](C)NC(=O)OC(C)(C)C)cc4)nn23)cc1OC [Compound 228, 4-(7-(3,4-dimethoxyphenyl)pyrazolo[1,5-a]pyrimidine-2-carboxamido) phenyl(tert-butoxycarbonyl)-L-alaninate] | > 6.70
15 | CCCCOc1ccc(NC(=O)c2cc3nccc(-c4ccc(OC)c(OC)c4)n3n2)cc1 [Compound 229, N-(4-butoxyphenyl)-7-(3,4-dimethoxyphenyl)pyrazolo [1,5-a]pyrimidine-2-carboxamide] | > 6.70
16 | CCCOc1ccc(NC(=O)c2cc3nccc(-c4ccc(OC)c(OC)c4)n3n2)cc1 [Compound 230, 7-(3,4-dimethoxyphenyl)-N-(4-propoxyphenyl)pyrazolo [1,5-a]pyrimidine-2-carboxamide] | > 6.70
17 | COc1ccc(-c2ccnc3cc(C(=O)N(C)c4ccc(C(=O)O)cc4)nn23)cc1OC [Compound 234, 4-(7-(3,4-dimethoxyphenyl)-N-methylpyrazolo[1,5-a]pyrimidine-2-carboxamido)benzoic acid] | ≤ 5.70
18 | COc1ccc(-c2ccnc3cc(C(=O)N[C@H]4CC[C@@H](C(=O)N5CCN(C)CC5)CC4)nn23)cc1OC [Compound 240, 7-(3,4-dimethoxyphenyl)-N-((1S,4S)-4-(4-methylpiperazine-1-carbonyl)cyclohexyl) pyrazolo[1,5-a]pyrimidine-2-carboxamide] | ≤ 5.70
19 | COc1ccc(-c2ccnc3cc(C(=O)N[C@H]4CC[C@H](C(=O)N5CCN(C)CC5)CC4)nn23)cc1OC [Compound 241, 7-(3,4-dimethoxyphenyl)-N-((1r,4r)-4-(4-methylpiperazine-1-carbonyl)cyclohexyl) pyrazolo[1,5-a]pyrimidine-2-carboxamide] | ≤ 5.70

Results, then the compound that gave them:

Row | pEC50 | SMILES
20 | 5.70 to 6.70 | COc1ccc(-c2ccnc3cc(C(=O)N4CCN(Cc5ccccc5)C(C)(C)C4)nn23)cc1OC [Compound 207, (4-benzyl-3,3-dimethylpiperazin-1-yl)(7-(3,4-dimethoxyphenyl)pyrazolo [1,5-a]pyrimidin-2-yl)methanone]
21 | ≤ 5.70 | COc1ccc(-c2ccnc3cc(C(=O)N4CCN(C)[C@@H](C)C4)nn23)cc1OC [Compound 208, (S)-(7-(3,4-dimethoxyphenyl)pyrazolo [1,5-a]pyrimidin-2-yl)(3,4-dimethylpiperazin-1-yl)methanone]
22 | > 6.70 | COc1ccc(-c2ccnc3cc(C(=O)N4CCN(C(=O)c5ccccc5)CC4)nn23)cc1OC [Compound 209, (4-benzoylpiperazin-1-yl)(7-(3,4-dimethoxyphenyl)pyrazolo [1,5-a]pyrimidin-2-yl)methanone]
23 | 5.70 to 6.70 | COc1ccc(-c2ccnc3cc(C(=O)N4CCN(C(=O)c5ccccc5)C(C)(C)C4)nn23)cc1OC [Compound 211, (4-benzoyl-3,3-dimethylpiperazin-1-yl) (7-(3,4-dimethoxyphenyl)pyrazolo [1,5-a]pyrimidin-2-yl)methanone]
24 | ≤ 5.70 | COc1ccc(-c2ccnc3cc(C(=O)Nc4ccc(C(=O)N5CCN(C)CC5)c(C)c4)nn23)cc1OC [Compound 215, 7-(3,4-dimethoxyphenyl)-N-(3-methyl-4-(4-methylpiperazine-1-carbonyl)phenyl)pyrazolo [1,5-a]pyrimidine-2-carboxamide]
25 | ≤ 5.70 | COc1ccc(-c2ccnc3cc(C(=O)Nc4ccc(C(=O)N5CCN(C)CC5)c(OC)c4)nn23)cc1OC [Compound 218, 7-(3,4-dimethoxyphenyl)-N-(3-methoxy-4-(4-methylpiperazine-1-carbonyl)phenyl)pyrazolo [1,5-a]pyrimidine-2-carboxamide]
26 | ≤ 5.70 | COc1ccc(-c2ccnc3cc(C(=O)N4CCc5cc(C(=O)O)ccc54)nn23)cc1OC [Compound 231, 1-(7-(3,4-dimethoxyphenyl)pyrazolo[1,5-a]pyrimidine-2-carbonyl) indoline-5-carboxylic acid]
27 | ≤ 5.70 | COc1ccc(-c2ccnc3cc(C(=O)N4CCc5ccc(C(=O)O)cc54)nn23)cc1OC [Compound 232, 1-(7-(3,4-dimethoxyphenyl)pyrazolo[1,5-a]pyrimidine-2-carbonyl) indoline-6-carboxylic acid]
28 | ≤ 5.70 | COc1ccc(-c2ccnc3cc(C(=O)N4CCCc5cc(C(=O)O)ccc54)nn23)cc1OC [Compound 233, 1-(7-(3,4-dimethoxyphenyl)pyrazolo[1,5-a]pyrimidine-2-carbonyl)-1,2,3,4-tetrahydroquinoline-6-carboxylic acid]
29 | ≤ 5.70 | COc1ccc(-c2ccnc3cc(C(=O)N4CCCc5cc(C(=O)N6CCN(C)CC6)ccc54)nn23)cc1OC [Compound 235, (7-(3,4-dimethoxyphenyl)pyrazolo[1,5-a]pyrimidin-2-yl)(6-(4-methylpiperazine-1-carbonyl)-3,4-dihydroquinolin-1(2H)-yl)methanone]
30 | ≤ 5.70 | COc1ccc(-c2ccnc3cc(C(=O)N4CCCc5cc(C(=O)N6CCOCC6)ccc54)nn23)cc1OC [Compound 236, (7-(3,4-dimethoxyphenyl)pyrazolo[1,5-a]pyrimidin-2-yl)(6-(morpholine-4-carbonyl)-3,4-dihydroquinolin-1(2H)-yl)methanone]
31 | ≤ 5.70 | COc1ccc(-c2ccnc3cc(C(=O)N4CCc5ccc(C(=O)N6CCN(C)CC6)cc5C4)nn23)cc1OC [Compound 237, (7-(3,4-dimethoxyphenyl)pyrazolo[1,5-a]pyrimidin-2-yl)(7-(4-methylpiperazine-1-carbonyl)-3,4-dihyroisoquinolin-2(1H)-yl)methanone]
32 | ≤ 5.70 | COc1ccc(-c2ccnc3cc(C(=O)N4CCc5ccc(C(=O)N6CCOCC6)cc5C4)nn23)cc1OC [Compound 238, (7-(3,4-dimethoxyphenyl)pyrazolo[1,5-a]pyrimidin-2-yl)(7-(morpholine-4-carbonyl)-3,4-dihydroisoquinolin-2(1H)-yl)methanone]
